Structures can show the parent of a compound that is named as a salt.
Experiments:
[1] = acute toxicity, intraperitoneal, mice (DL50); conditions: mouse, in vivo, ip, suspension in carboxymethylcellulose, observed one week, read-out: DL50 (average lethal dose)
Procedure: The acute toxicity was determined on groups of 10 mice weighing between 18 and 22 g and the product was administered intraperitoneally as a suspension in carboxymethylcellulose.

[2] = system: plasmatic free fatty acids; assay: Antilipolytic activity: determination of plasmatic free fatty acids in the blood; assay type: in vivo, Male rats of the Sprague Dawley SPF strain; conditions: oral; for ED50: Rattus norvegicus, 1 h, starved rats, one hour after administration, read-out: DA50 (dose which reduced by 50% the level of free fatty acids as compared to controls); for reduction of the amount of plasmatic free fatty acids in the blood (in words): rats
Procedure: B. Antilipolytic Activity: Determination of Plasmatic Free Fatty Acids in the Blood
Male rats of the Sprague Dawley SPF strain weighing about 180 to 200 gm were starved for 24 hours and then were given the product orally. One hour after the oral administration, the animals were killed by carotidienne section and samples of the blood were obtained to determine the amount of free fatty acids. The extraction of the free fatty acids was made by the technique of Dole [J. Clin. Invest., Vol. 38 (1959), p. 1544-1554] as modified by Trout et al. [J. Lipid. Res., Vol. 1 (1960) p. 199-202]. The plasmatic extract freed of phospholipids was colorimetrically examined by the method of Anthonis [J. Lipid. Res., Vol. 6 (1965), p. 307-312]. Under these test conditions, the dose of the products which reduced by 50% the level of free fatty acids in the treated animals as compared to the controls (DA50) was determined.

glycemia = assay: Hypoglycemiant activity: determination of glycemia; assay type: in vivo, Male rats of the Sprague Dawley SPF strain; conditions: oral, starved rats, one hour
Procedure: C. Hypoglycemiant Activity: Determination of Glycemia
Male rats of the Sprague Dawley SPF strain weighing between 180 and 200 gm were starved for 24 hours and were then given the test product orally. One hour after the administration, the animals were killed by carotidienne section and blood samples were taken to determine the glycemia. The seric extract was treated by the enzymatic (glucose-oxydase) method of Boehringer and the percent of reduction of glycemia as compared to the controls was determined for each dose of the product administered.

With Cc1ncc(CN)s1 [Example 1, hemisuccinate of 2-methyl-5-thiazole-methane-amine] the LD50 at 168 h [1] was over 1000 mg/kg, the ED50 [2] was about 0.8 mg/kg and the “reduction of the amount of plasmatic free fatty acids in the blood (in words)” value [2] was “clear reduction”.
In the case of Cc1ncc(CN(CCO)CCO)s1 [Example 4, dinitrate of N,N-bis-(β-hydroxyethyl)-2-methyl-5-thiazole-methane-amine], the LD50 at 168 h [1] was about 900 mg/kg.
Cc1ncc(CN2CCN(C)CC2)s1 [Example 7, 2-methyl-5-(4-methyl-piperazin-1-yl-methyl)-thiazole] showed an LD50 at 168 h [1] of about 500 mg/kg.
With CNCc1cnc(C)s1 [Example 2, acetate of N,2-dimethyl-5-thiazole-methane-amine] the LD50 at 168 h [1] was about 700 mg/kg, the ED50 [2] was about 4 mg/kg and the “reduction of the amount of plasmatic free fatty acids in the blood (in words)” value [2] was “clear reduction”.
For Cc1ncc(CN(C)C)s1 [Example 3, maleate of N,N,2-trimethyl-5-thiazole-methane-amine], the LD50 at 168 h [1] was about 450 mg/kg, the ED50 [2] was about 5 mg/kg and the “reduction of the amount of plasmatic free fatty acids in the blood (in words)” value [2] was “clear reduction”.
In the case of CCCc1ncc(CN)s1 [Example 5, hemisuccinate of 2-n-propyl-5-thiazole-methane-amine], the LD50 at 168 h [1] was about 650 mg/kg, the ED50 [2] was about 8 mg/kg and the “reduction of the amount of plasmatic free fatty acids in the blood (in words)” value [2] was “clear reduction”. The “Percentage of reduction of the glycemia” value (glycemia; 5 mg/kg) was -12%, the “Percentage of reduction of the glycemia” value (glycemia; 10 mg/kg) was -14% and the “Percentage of reduction of the glycemia” value (glycemia; 20 mg/kg) was -27%.

Reference: US4108994A, “5-Thiazole-methane-amines, and their use as antilipolytics” (Roussel Uclaf, priority 1975, dated 1978)
